IC50 data for 15 molecules are collected here from patent publication US11814367B2, “Inhibitors of glycogen synthase 1 (GYS1) and methods of use thereof” (Maze Therapeutics, Inc., priority 2021, dated 2023).

The subject of assay [1] is hGYS1 enzyme / glycogen synthesis in HeLa cells. In words: GYS1 cell based assay (glycogen synthesis, Glucose-glo). Also on record: species or system human. The conditions noted are these: Homo sapiens, HeLa, 24 h, 24 h incubation, 20 mM glucose, geometric mean of at least 2 runs. The gist of the method:
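HeLa cells starved 24 h in medium containing only 1× Glutamax were plated onto compound in medium with 20 mM glucose (1% DMSO final) for 24 h, 37 °C, 5% CO2. Acid lysates were Tris-quenched, glucoamylase-digested (pH 5.3, 1 h, 37 °C) and read by Glucose-glo luminescence. IC50 came from Hill fits, as geometric mean of ≥2 runs.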

In assay [2] the target is hGYS2 enzyme (recombinant hGYS2/GN1 protein) (Homo sapiens (Human), UniProt P54840). Put plainly: GYS2 coupled enzyme assay (PK/LDH). The following applies: geometric mean of at least 2 assay runs on separate days, read-out: Avg_IC50. It is filed as biochemical. The gist of the method: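 IC50 came from Hill fits of duplicate percent inhibition, based on control-normalized slopes of 340 nm NADH decline read each minute for 10 min. The reaction held recombinant hGYS2/GN1 (200 nM) with glycogen, UDP-glucose, G6P and PEP, plus PK/LDH coupling at pH 7.5 and 2.5% DMSO.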
hGYS2 enzyme (recombinant hGYS2/GN1 protein), sequence (P54840 whole entry): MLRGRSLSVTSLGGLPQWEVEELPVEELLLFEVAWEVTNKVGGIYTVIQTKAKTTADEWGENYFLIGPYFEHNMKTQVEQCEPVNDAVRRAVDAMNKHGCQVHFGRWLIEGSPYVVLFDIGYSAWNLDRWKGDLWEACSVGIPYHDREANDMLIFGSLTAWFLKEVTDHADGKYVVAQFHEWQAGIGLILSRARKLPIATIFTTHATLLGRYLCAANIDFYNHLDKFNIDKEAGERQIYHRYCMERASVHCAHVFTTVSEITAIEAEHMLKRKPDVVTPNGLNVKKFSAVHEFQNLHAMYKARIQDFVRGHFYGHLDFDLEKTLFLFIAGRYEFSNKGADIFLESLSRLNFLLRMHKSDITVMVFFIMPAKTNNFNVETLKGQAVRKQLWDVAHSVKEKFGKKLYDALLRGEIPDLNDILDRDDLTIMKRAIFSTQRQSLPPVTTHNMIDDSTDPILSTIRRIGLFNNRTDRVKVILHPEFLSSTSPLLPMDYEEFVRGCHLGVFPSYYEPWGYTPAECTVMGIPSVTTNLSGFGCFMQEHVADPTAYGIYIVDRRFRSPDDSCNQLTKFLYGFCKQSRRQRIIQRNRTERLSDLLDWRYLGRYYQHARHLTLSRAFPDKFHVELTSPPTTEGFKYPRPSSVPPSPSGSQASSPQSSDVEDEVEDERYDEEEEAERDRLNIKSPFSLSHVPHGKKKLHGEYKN
hGYS2 enzyme (recombinant hGYS2/GN1 protein), sequence (P46976 whole entry partner): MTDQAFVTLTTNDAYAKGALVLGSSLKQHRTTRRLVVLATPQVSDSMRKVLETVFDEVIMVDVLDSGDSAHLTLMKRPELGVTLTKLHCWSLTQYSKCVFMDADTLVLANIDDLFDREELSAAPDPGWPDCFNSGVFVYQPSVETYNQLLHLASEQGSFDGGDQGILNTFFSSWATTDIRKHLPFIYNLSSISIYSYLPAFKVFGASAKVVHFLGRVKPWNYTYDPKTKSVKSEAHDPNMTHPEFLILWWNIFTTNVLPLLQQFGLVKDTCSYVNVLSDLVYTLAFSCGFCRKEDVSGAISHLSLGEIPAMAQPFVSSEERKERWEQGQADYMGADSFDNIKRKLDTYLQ

The target in assay [3] is hGYS1 enzyme (recombinant hGYS1/GN1 protein) (Homo sapiens (Human), UniProt P13807). In words: GYS1 coupled enzyme assay (PK/LDH). It is filed as biochemical. The following applies: hGYS1/GN1 50 nM, UDP-Glucose 0.8 mM, G6P 1 mM; geometric mean of at least 2 runs.
hGYS1 enzyme (recombinant hGYS1/GN1 protein), sequence (P13807 whole entry): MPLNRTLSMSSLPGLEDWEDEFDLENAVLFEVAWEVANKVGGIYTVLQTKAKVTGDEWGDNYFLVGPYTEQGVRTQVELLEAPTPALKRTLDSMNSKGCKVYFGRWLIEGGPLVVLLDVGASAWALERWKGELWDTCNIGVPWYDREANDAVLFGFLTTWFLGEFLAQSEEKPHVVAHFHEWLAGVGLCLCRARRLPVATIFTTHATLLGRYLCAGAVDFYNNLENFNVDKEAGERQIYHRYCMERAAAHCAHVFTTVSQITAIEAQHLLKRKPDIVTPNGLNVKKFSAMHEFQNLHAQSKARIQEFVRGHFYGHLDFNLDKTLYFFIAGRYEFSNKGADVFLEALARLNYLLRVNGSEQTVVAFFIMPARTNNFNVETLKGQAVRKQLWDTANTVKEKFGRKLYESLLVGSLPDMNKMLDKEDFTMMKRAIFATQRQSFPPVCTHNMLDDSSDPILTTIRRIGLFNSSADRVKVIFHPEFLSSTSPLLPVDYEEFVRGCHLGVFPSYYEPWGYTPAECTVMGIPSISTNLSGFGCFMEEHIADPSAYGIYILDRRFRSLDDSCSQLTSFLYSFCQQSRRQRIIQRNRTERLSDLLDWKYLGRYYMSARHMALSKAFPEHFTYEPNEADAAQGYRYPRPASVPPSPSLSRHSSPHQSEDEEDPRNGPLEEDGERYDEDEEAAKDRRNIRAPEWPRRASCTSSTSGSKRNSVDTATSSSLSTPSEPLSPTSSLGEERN
hGYS1 enzyme (recombinant hGYS1/GN1 protein), sequence (P46976 whole entry partner): as the sequence (P46976 whole entry partner) above

On to `CC(C)c1ccc([C@@H](NC(=O)[C@@H]2C[C@@H](F)CN2C(=O)Cn2ncc(N3CCC3)n2)c2ccccc2)nc1` [Compound 276, (2S,4R)-1-{2-[4-(azetidin-1-yl)-2H-1,2,3-triazol-2-yl]acetyl}-4-fluoro-N-[(S)-phenyl[5-(propan-2-yl)pyridin-2-yl]methyl]pyrrolidine-2-carboxamide], for which the IC50 in assay [1] is 400 nM; in assay [2], above 100000 nM; in assay [3], 20 nM.

`CC(C)c1ccc([C@@H](NC(=O)[C@@H]2C[C@@H](F)CN2C(=O)Cn2ncc(N3CC(F)(F)C3)n2)c2ccccc2)nc1` [Compound 277, (2S,4R)-1-{2-[4-(3,3-difluoroazetidin-1-yl)-2H-1,2,3-triazol-2-yl]acetyl}-4-fluoro-N-[(S)-phenyl[5-(propan-2-yl)pyridin-2-yl]methyl]pyrrolidine-2-carboxamide]: the IC50 was 650 nM in assay [1], above 100000 nM in assay [2] and 31 nM in assay [3].

Consider `CCN(CC)c1cnn(CC(=O)N2C[C@H](F)C[C@H]2C(=O)N[C@@H](c2ccccc2)c2ccc(C(C)C)cn2)n1` [Compound 278, (2S,4R)-1-{2-[4-(diethylamino)-2H-1,2,3-triazol-2-yl]acety}-4-fluoro-N-N-[(S)-phenyl[5-(propan-2-yl)pyridin-2-yl]methyl]pyrrolidine-2-carboxamide], for which the IC50 in assay [1] was 230 nM; in assay [2], above 100000 nM; in assay [3] it was 11 nM.

Regarding `CC(C)c1ccc([C@@H](NC(=O)[C@@H]2[C@H]3C[C@H]3CN2C(=O)Cc2cnn[nH]2)c2ccccc2)nc1` [Compound 279, (1S,2S,5R)-N-[(S)-phenyl[5-(propan-2-yl)pyridin-2-yl]methyl]-3-[2-(1H-1,2,3-triazol-5-yl)acetyl]-3-azabicyclo[3.1.0]hexane-2-carboxamide], the IC50 was 2310 nM in assay [1], above 100000 nM in assay [2] and 234 nM in assay [3].

`CC(C)c1ccc([C@@H](NC(=O)[C@@H]2CC[C@H](C)N2C(=O)Cc2cnn[nH]2)c2ccccc2)nc1` [Compound 280, (2S,5S)-5-methyl-N-[(S)-phenyl[5-(propan-2-yl)pyridin-2-yl]methyl]-1-[2-(1H-1,2,3-triazol-5-yl)acetyl]pyrrolidine-2-carboxamide]: the figures for the IC50 in assay [1], in assay [2] and in assay [3] were 1530 nM, above 100000 nM and 149 nM, respectively.

Consider `CC(C)c1ccc([C@@H](NC(=O)[C@@H]2C[C@@H](F)CN2C(=O)CNC(=O)N2CCN(CC(F)(F)F)CC2)c2ccccc2)nc1` [Compound 281, N-{2-[(2S,4R)-4-fluoro-2-{[(S)-phenyl[5-(propan-2-yl)pyridin-2-yl]methyl]carbamoyl}pyrrolidin-1-yl]-2-oxoethyl}-4-(2,2,2-trifluoroethyl)piperazine-1-carboxamide], for which the IC50 in assay [1] is 1560 nM; in assay [2], above 100000 nM; in assay [3], 59 nM.

As to `CC(C)c1ccc([C@@H](NC(=O)[C@@H]2C[C@@H](F)CN2C(=O)CNC(=O)N2CCN(CC3CC3)CC2)c2ccccc2)nc1` [Compound 282, 4-(cyclopropylmethyl)-N-{2-[(2S,4R)-4-fluoro-2-{[(S)-phenyl[5-(propan-2-yl)pyridin-2-yl]methyl]carbamoyl}pyrrolidin-1-yl]-2-oxoethyl}piperazine-1-carboxamide], the IC50 was 4180 nM in assay [1], above 100000 nM in assay [2] and 49 nM in assay [3].

Turning to `CC(C)c1ccc([C@@H](NC(=O)[C@@H]2C[C@@H](F)CN2C(=O)CNC(=O)N2CCN(C)CC2)c2ccccc2)nc1` [Compound 283, N-{2-[(2S,4R)-4-fluoro-2-{[(S)-phenyl[5-(propan-2-yl)pyridin-2-yl]methyl]carbamoyl}pyrrolidin-1-yl]-2-oxoethyl}-4-methylpiperazine-1-carboxamide], the IC50 in assay [1] is 2400 nM; in assay [2], above 100000 nM; in assay [3], 58 nM.

In the case of `CC(C)c1ccc([C@@H](NC(=O)[C@@H]2C[C@@H](F)CN2C(=O)Cc2n[nH]c(=O)[nH]2)c2ccccc2)nc1` [Compound 284, (2S,4R)-4-fluoro-1-[2-(5-oxo-4,5-dihydro-1H-1,2,4-triazol-3-yl)acetyl]-N-[(S)-phenyl[5-(propan-2-yl)pyridin-2-yl]methyl]pyrrolidine-2-carboxamide], the IC50 is 5190 nM in assay [1], above 100000 nM in assay [2] and 90 nM in assay [3].

On to `CC(C)c1ccc([C@@H](NC(=O)[C@@H]2C[C@@H](F)CN2C(=O)CCc2n[nH]c(=O)[nH]2)c2ccccc2)nc1` [Compound 287, (2S,4R)-4-fluoro-1-[3-(5-oxo-4,5-dihydro-1H-1,2,4-triazol-3-yl)propanoyl]-N-[(S)-phenyl[5-(propan-2-yl)pyridin-2-yl]methyl]pyrrolidine-2-carboxamide], for which the IC50 in assay [1] was 11800 nM; in assay [2], above 100000 nM; in assay [3], 124 nM.

As for `O=C(N[C@@H](c1ccccc1)c1ccc(C2CC2)c(F)n1)[C@@H]1C[C@@H](F)CN1C(=O)Cn1nnnc1C(F)F` [Compound 293, (2S,4R)-N-((S)-(5-cyclopropl-6-fluoropyridin-2-yl)(phenyl)methyl)-1-(2-(5-(difluoromethyl)-1H-tetrazol-1-yl)acetyl)-4-fluoropyrrolidine-2-carboxamide], the IC50 in assay [1] was 660 nM; in assay [2] it was above 100000 nM; in assay [3], 38 nM.

For the molecule `O=C(N[C@@H](c1ccccc1)c1ccc(C2CC2)c(F)n1)[C@@H]1C[C@@H](F)CN1C(=O)Cn1cnc2ccccc21` [Compound 294, (2S,4R)-1-[2-(1H-1,3-benzodiazol-1-yl)acetyl]-N-[(S)-(5-cyclopropyl-6-fluoropyridin-2-yl)(phenyl)methyl]-4-fluoropyrrolidine-2-carboxamide], the values for the IC50 in assay [1], in assay [2] and in assay [3] were 160 nM, above 100000 nM and 6 nM, respectively.

For the molecule `Cc1cn(CC(=O)N2C[C@H](F)C[C@H]2C(=O)N[C@@H](c2ccccc2)c2ccc(C3CC3)c(F)n2)c(=O)[nH]c1=O` [Compound 295, (2S,4R)-N-[(S)-(5-cyclopropyl-6-fluoropyridin-2-yl)(phenyl)methyl]-4-fluoro-1-[2-(5-methyl-2,4-dioxo-1,2,3,4-tetrahydropyrimidin-1-yl)acetyl]pyrrolidine-2-carboxamide], the IC50 in assay [1] is 590 nM; in assay [2], above 100000 nM; in assay [3] it was 13 nM.

With `O=C(N[C@@H](c1ccccc1)c1ccc(C2CC2)c(F)n1)[C@@H]1C[C@@H](F)CN1C(=O)Cn1cnnc1` [Compound 296, (2S,4R)-N-[(S)-(5-cyclopropyl-6-fluoropyridin-2-yl)(phenyl)methyl]-4-fluoro-1-[2-(4H-1,2,4-triazol-4-yl)acetyl]pyrrolidine-2-carboxamide], the IC50 in assay [1] is 4440 nM; in assay [2], above 100000 nM; in assay [3], 87 nM.

Turning to `CN(C)c1cnnn1CC(=O)N1C[C@H](F)C[C@H]1C(=O)N[C@@H](c1ccccc1)c1ccc(C2CC2)c(F)n1` [Compound 298, (2S,4R)-N-[(S)-(5-cyclopropyl-6-fluoropyridin-2-yl)(phenyl)methyl]-1-{2-[5-(dimethylamino)-1H-1,2,3-triazol-1-yl]acetyl}-4-fluoropyrrolidine-2-carboxamide], the IC50 is 260 nM in assay [1], above 100000 nM in assay [2] and 12 nM in assay [3].
